# Measurements as given in PubChem BioAssay (NCI).
#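 48-hour exposure; five concentrations; linearly interpolated endpoints. TGI: total growth inhibition.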
# Assays:
# Test in all cases: NCI anticancer screen, dose series, 48 h
# HOP-62 NSCLC = system: HOP-62 NSCLC
# KM20L2 colon = system: KM20L2 colon
# SF-295 CNS = system: SF-295 CNS
# SK-OV-3 ovarian = system: SK-OV-3 ovarian
# OVCAR-8 ovarian = system: OVCAR-8 ovarian
# HOP-92 NSCLC = system: HOP-92 NSCLC
# RPMI-8226 leukemia = system: RPMI-8226 leukemia
# A498 renal = system: A498 renal
# SNB-78 CNS = system: SNB-78 CNS
# TK-10 renal = system: TK-10 renal
# OVCAR-5 ovarian = system: OVCAR-5 ovarian
# OVCAR-4 ovarian = system: OVCAR-4 ovarian
# U251 CNS = system: U251 CNS
# SR leukemia = system: SR leukemia
# CCRF-CEM leukemia = system: CCRF-CEM leukemia
# NCI-H226 lung = system: NCI-H226 lung
# MOLT-4 leukemia = system: MOLT-4 leukemia
# A549 NSCLC = system: A549 NSCLC
# SF-539 CNS = system: SF-539 CNS
# LOX IMVI melanoma = system: LOX IMVI melanoma
# RXF 393 renal = system: RXF 393 renal
# UACC-62 melanoma = system: UACC-62 melanoma
# NCI-H460 lung = system: NCI-H460 lung
# DMS 114 small cell lung = system: DMS 114 small cell lung
# LXFL 529 NSCLC = system: LXFL 529 NSCLC
# OVCAR-3 ovarian = system: OVCAR-3 ovarian
# K-562 leukemia = system: K-562 leukemia
# UO-31 renal = system: UO-31 renal
# HCT-116 colon = system: HCT-116 colon
# IGROV1 ovarian = system: IGROV1 ovarian
# ACHN renal = system: ACHN renal
# M14 melanoma = system: M14 melanoma
# HT29 colon = system: HT29 colon
# KM12 colon = system: KM12 colon
# EKVX NSCLC = system: EKVX NSCLC
# SNB-75 CNS = system: SNB-75 CNS
# DMS 273 small cell lung = system: DMS 273 small cell lung
# M19-MEL melanoma = system: M19-MEL melanoma
# SW-620 colon = system: SW-620 colon
# COLO 205 colon = system: COLO 205 colon
# SK-MEL-2 melanoma = system: SK-MEL-2 melanoma
# CAKI-1 renal = system: CAKI-1 renal
# SF-268 CNS = system: SF-268 CNS
# NCI-H23 lung = system: NCI-H23 lung
# HL-60(TB) leukemia = system: HL-60(TB) leukemia
# SK-MEL-5 melanoma = system: SK-MEL-5 melanoma
# DLD-1 colon = system: DLD-1 colon
# 786-0 renal = system: 786-0 renal
# SN12C renal = system: SN12C renal
# XF 498 CNS = system: XF 498 CNS
# SK-MEL-28 melanoma = system: SK-MEL-28 melanoma
# HOP-18 NSCLC = system: HOP-18 NSCLC
# MALME-3M melanoma = system: MALME-3M melanoma
# UACC-257 melanoma = system: UACC-257 melanoma
# HCT-15 colon = system: HCT-15 colon
# HCC-2998 colon = system: HCC-2998 colon
# NCI-H522 lung = system: NCI-H522 lung
# RXF-631 renal = system: RXF-631 renal
# SNB-19 CNS = system: SNB-19 CNS
smiles,measurement,setting,value
COc1cc(OC)c(C2CC=Cc3c(OC)cc(OC)c(OC)c32)cc1OC (configuration not stated),TGI,HOP-62 NSCLC,> 100 µM
same,TGI,KM20L2 colon,> 100 µM
same,TGI,SF-295 CNS,> 100 µM
same,TGI,SK-OV-3 ovarian,> 100 µM
same,TGI,OVCAR-8 ovarian,> 100 µM
same,TGI,HOP-92 NSCLC,> 100 µM
same,TGI,RPMI-8226 leukemia,> 100 µM
same,TGI,A498 renal,> 100 µM
same,TGI,SNB-78 CNS,> 100 µM
same,TGI,TK-10 renal,> 100 µM
same,TGI,OVCAR-5 ovarian,> 100 µM
same,TGI,OVCAR-4 ovarian,> 100 µM
same,TGI,U251 CNS,> 100 µM
same,TGI,SR leukemia,> 100 µM
same,TGI,CCRF-CEM leukemia,> 100 µM
same,TGI,NCI-H226 lung,> 100 µM
same,TGI,MOLT-4 leukemia,> 100 µM
same,TGI,A549 NSCLC,> 100 µM
same,TGI,SF-539 CNS,> 100 µM
same,TGI,LOX IMVI melanoma,> 100 µM
same,TGI,RXF 393 renal,> 100 µM
same,TGI,UACC-62 melanoma,> 100 µM
same,TGI,NCI-H460 lung,> 100 µM
same,TGI,DMS 114 small cell lung,> 100 µM
same,TGI,LXFL 529 NSCLC,> 100 µM
same,TGI,OVCAR-3 ovarian,> 100 µM
same,TGI,K-562 leukemia,> 100 µM
same,TGI,UO-31 renal,> 100 µM
same,TGI,HCT-116 colon,> 100 µM
same,TGI,IGROV1 ovarian,> 100 µM
same,TGI,ACHN renal,> 100 µM
same,TGI,M14 melanoma,> 100 µM
same,TGI,HT29 colon,> 100 µM
same,TGI,KM12 colon,> 100 µM
same,TGI,EKVX NSCLC,> 100 µM
same,TGI,SNB-75 CNS,> 100 µM
same,TGI,DMS 273 small cell lung,> 100 µM
same,TGI,M19-MEL melanoma,> 100 µM
same,TGI,SW-620 colon,> 100 µM
same,TGI,COLO 205 colon,> 100 µM
same,TGI,SK-MEL-2 melanoma,> 100 µM
same,TGI,CAKI-1 renal,> 100 µM
same,TGI,SF-268 CNS,> 100 µM
same,TGI,NCI-H23 lung,> 100 µM
same,TGI,HL-60(TB) leukemia,> 100 µM
same,TGI,SK-MEL-5 melanoma,> 100 µM
same,TGI,DLD-1 colon,> 100 µM
same,TGI,786-0 renal,> 100 µM
same,TGI,SN12C renal,> 100 µM
same,TGI,XF 498 CNS,> 100 µM
same,TGI,SK-MEL-28 melanoma,> 100 µM
same,TGI,HOP-18 NSCLC,> 100 µM
same,TGI,MALME-3M melanoma,> 100 µM
same,TGI,UACC-257 melanoma,> 100 µM
same,TGI,HCT-15 colon,> 100 µM
same,TGI,HCC-2998 colon,> 100 µM
Cc1[nH]c(=O)nc(N(CCO)/N=C/c2ccccc2Cl)c1C(=O)Nc1cc(Cl)cc(Cl)c1,TGI,HOP-62 NSCLC,59.1 µM
same,TGI,SK-OV-3 ovarian,49.8 µM
same,TGI,HOP-92 NSCLC,69.9 µM
same,TGI,NCI-H522 lung,87.9 µM
same,TGI,RPMI-8226 leukemia,> 100 µM
same,TGI,A498 renal,44.5 µM
same,TGI,OVCAR-4 ovarian,93 µM
same,TGI,SR leukemia,> 100 µM
same,TGI,CCRF-CEM leukemia,> 100 µM
same,TGI,NCI-H226 lung,53.3 µM
same,TGI,MOLT-4 leukemia,> 100 µM
same,TGI,SF-539 CNS,60.1 µM
same,TGI,UACC-62 melanoma,> 100 µM
same,TGI,NCI-H460 lung,> 100 µM
same,TGI,DMS 114 small cell lung,> 100 µM
same,TGI,LXFL 529 NSCLC,> 100 µM
same,TGI,K-562 leukemia,> 100 µM
same,TGI,UO-31 renal,> 100 µM
same,TGI,HCT-116 colon,59.4 µM
same,TGI,IGROV1 ovarian,> 100 µM
same,TGI,ACHN renal,> 100 µM
same,TGI,M14 melanoma,> 100 µM
same,TGI,RXF-631 renal,> 100 µM
same,TGI,SNB-75 CNS,63.8 µM
same,TGI,DMS 273 small cell lung,> 100 µM
same,TGI,M19-MEL melanoma,> 100 µM
same,TGI,COLO 205 colon,> 100 µM
same,TGI,SK-MEL-2 melanoma,> 100 µM
same,TGI,CAKI-1 renal,> 100 µM
same,TGI,SF-268 CNS,> 100 µM
same,TGI,NCI-H23 lung,> 100 µM
same,TGI,HL-60(TB) leukemia,> 100 µM
same,TGI,DLD-1 colon,> 100 µM
same,TGI,786-0 renal,46.2 µM
same,TGI,SN12C renal,> 100 µM
same,TGI,XF 498 CNS,> 100 µM
same,TGI,SK-MEL-28 melanoma,> 100 µM
same,TGI,HCT-15 colon,> 100 µM
same,TGI,HCC-2998 colon,> 100 µM
COC(=O)c1c(N)n[nH]c1N,TGI,HOP-62 NSCLC,> 100 µM
same,TGI,KM20L2 colon,> 100 µM
same,TGI,SF-295 CNS,> 100 µM
same,TGI,SK-OV-3 ovarian,> 100 µM
same,TGI,OVCAR-8 ovarian,> 100 µM
same,TGI,HOP-92 NSCLC,> 100 µM
same,TGI,NCI-H522 lung,> 100 µM
same,TGI,RPMI-8226 leukemia,> 100 µM
same,TGI,A498 renal,> 100 µM
same,TGI,SNB-78 CNS,> 100 µM
same,TGI,TK-10 renal,> 100 µM
same,TGI,OVCAR-4 ovarian,> 100 µM
same,TGI,U251 CNS,> 100 µM
same,TGI,SR leukemia,> 100 µM
same,TGI,CCRF-CEM leukemia,> 100 µM
same,TGI,MOLT-4 leukemia,> 100 µM
same,TGI,A549 NSCLC,> 100 µM
same,TGI,SF-539 CNS,> 100 µM
same,TGI,LOX IMVI melanoma,> 100 µM
same,TGI,RXF 393 renal,> 100 µM
same,TGI,UACC-62 melanoma,> 100 µM
same,TGI,NCI-H460 lung,> 100 µM
same,TGI,OVCAR-3 ovarian,> 100 µM
same,TGI,K-562 leukemia,> 100 µM
same,TGI,UO-31 renal,> 100 µM
same,TGI,HCT-116 colon,> 100 µM
same,TGI,IGROV1 ovarian,> 100 µM
same,TGI,M14 melanoma,> 100 µM
same,TGI,KM12 colon,> 100 µM
same,TGI,RXF-631 renal,> 100 µM
same,TGI,EKVX NSCLC,> 100 µM
same,TGI,SNB-75 CNS,> 100 µM
same,TGI,DMS 273 small cell lung,> 100 µM
same,TGI,M19-MEL melanoma,> 100 µM
same,TGI,SW-620 colon,> 100 µM
same,TGI,COLO 205 colon,> 100 µM
same,TGI,SK-MEL-2 melanoma,> 100 µM
same,TGI,CAKI-1 renal,> 100 µM
same,TGI,SF-268 CNS,> 100 µM
same,TGI,SNB-19 CNS,> 100 µM
same,TGI,NCI-H23 lung,> 100 µM
same,TGI,HL-60(TB) leukemia,> 100 µM
same,TGI,SK-MEL-5 melanoma,> 100 µM
same,TGI,DLD-1 colon,> 100 µM
same,TGI,786-0 renal,> 100 µM
same,TGI,SN12C renal,> 100 µM
same,TGI,XF 498 CNS,> 100 µM
same,TGI,SK-MEL-28 melanoma,> 100 µM
same,TGI,UACC-257 melanoma,> 100 µM
same,TGI,HCC-2998 colon,> 100 µM
Cc1cc(C)nc(NS(=O)(=O)c2ccc(Nc3c4ccc(Cl)cc4nc4c(C(=O)Nc5ccc(S(N)(=O)=O)cc5)cccc34)cc2)n1,TGI,HOP-62 NSCLC,37.8 µM
same,TGI,KM20L2 colon,33.1 µM
same,TGI,SF-295 CNS,36.9 µM
same,TGI,SK-OV-3 ovarian,30.5 µM
same,TGI,OVCAR-8 ovarian,37.7 µM
same,TGI,NCI-H522 lung,24.1 µM
same,TGI,RPMI-8226 leukemia,76.5 µM
same,TGI,A498 renal,32.6 µM
same,TGI,SNB-78 CNS,> 100 µM
same,TGI,TK-10 renal,89.6 µM
same,TGI,OVCAR-5 ovarian,28.8 µM
same,TGI,OVCAR-4 ovarian,55.5 µM
same,TGI,U251 CNS,28.7 µM
same,TGI,SR leukemia,51.5 µM
same,TGI,CCRF-CEM leukemia,> 100 µM
same,TGI,MOLT-4 leukemia,39.7 µM
same,TGI,SF-539 CNS,37.9 µM
same,TGI,LOX IMVI melanoma,34.8 µM
same,TGI,RXF 393 renal,26.7 µM
same,TGI,UACC-62 melanoma,76.6 µM
same,TGI,NCI-H460 lung,60.8 µM
same,TGI,DMS 114 small cell lung,65 µM
same,TGI,LXFL 529 NSCLC,> 100 µM
same,TGI,OVCAR-3 ovarian,30.2 µM
same,TGI,K-562 leukemia,> 100 µM
same,TGI,UO-31 renal,39.2 µM
same,TGI,HCT-116 colon,30.2 µM
same,TGI,ACHN renal,> 100 µM
same,TGI,M14 melanoma,34.7 µM
same,TGI,HT29 colon,52.4 µM
same,TGI,KM12 colon,27.2 µM
same,TGI,RXF-631 renal,44.2 µM
same,TGI,EKVX NSCLC,48.8 µM
same,TGI,SNB-75 CNS,> 100 µM
same,TGI,M19-MEL melanoma,> 100 µM
same,TGI,SF-268 CNS,> 100 µM
same,TGI,SNB-19 CNS,93.9 µM
same,TGI,NCI-H23 lung,43 µM
same,TGI,DLD-1 colon,32 µM
same,TGI,786-0 renal,28.7 µM
same,TGI,SN12C renal,30.2 µM
same,TGI,XF 498 CNS,45.6 µM
same,TGI,SK-MEL-28 melanoma,> 100 µM
same,TGI,MALME-3M melanoma,> 100 µM
same,TGI,UACC-257 melanoma,43.9 µM
same,TGI,HCT-15 colon,36.2 µM
same,TGI,HCC-2998 colon,30.9 µM
